Laboratory results: PMC8657075 (Journal of biotechnology, 2021)

Experiments:
[1] = target: T1, dopamine transporter (DAT) (Rattus norvegicus, UniProt P23977); assay: [3H]GBR […] radioligand displacement; format: binding
[2] = target: T1, dopamine transporter (DAT); assay: [3H]GBR […] radioligand displacement, rat striatal membranes; format: binding

T1 sequence (P23977 whole entry): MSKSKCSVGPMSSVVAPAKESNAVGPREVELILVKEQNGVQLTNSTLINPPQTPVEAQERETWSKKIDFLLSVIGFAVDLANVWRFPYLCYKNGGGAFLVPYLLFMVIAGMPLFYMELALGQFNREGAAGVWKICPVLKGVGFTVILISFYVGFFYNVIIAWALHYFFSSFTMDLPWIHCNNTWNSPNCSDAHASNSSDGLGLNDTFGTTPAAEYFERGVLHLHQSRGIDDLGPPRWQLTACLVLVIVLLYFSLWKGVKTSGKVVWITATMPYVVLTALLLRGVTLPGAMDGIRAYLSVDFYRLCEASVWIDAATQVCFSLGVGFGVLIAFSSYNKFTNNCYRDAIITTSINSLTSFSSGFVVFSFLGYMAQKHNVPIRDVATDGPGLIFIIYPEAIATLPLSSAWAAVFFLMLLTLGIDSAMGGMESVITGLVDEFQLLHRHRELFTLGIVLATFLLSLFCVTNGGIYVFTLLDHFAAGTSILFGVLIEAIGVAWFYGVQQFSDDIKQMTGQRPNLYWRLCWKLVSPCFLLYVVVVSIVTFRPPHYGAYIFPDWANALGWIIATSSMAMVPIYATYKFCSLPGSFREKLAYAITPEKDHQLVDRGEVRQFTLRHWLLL

| Molecule | Ki [1] [µM] | Ki [2] [µM] |
| --- | --- | --- |
| lobinaline N-oxide | 132 |  |
| CN1CCCC2C(c3ccccc3)C(C3=NCCCC3)C(c3ccccc3)CC21 (centres unmarked) [lobinaline] |  | 2.54 |
